The source made the active and inactive calls.
Assays:
[1] = Genotoxicity in rec negative Bacillus subtilis M45 assessed as diameter of inhibition zone at 256 ug measured after 24 hrs by rec-assay; type: toxicity; settings: in vivo
[2] = Genotoxicity in rec-positive Bacillus subtilis H17 assessed as diameter of inhibition zone at 256 ug measured after 24 hrs by rec-assay; type: toxicity; settings: in vivo
[3] = tested on: Escherichia coli; assay: Antibacterial activity against Escherichia coli ATCC 25922 assessed as bacterial growth inhibition measured after 18 hrs by CLSI protocol based two-fold serial microdilution method; type: functional, organism-based
[4] = tested on: Pseudomonas aeruginosa; assay: Antibacterial activity against Pseudomonas aeruginosa ATCC 15442 assessed as bacterial growth inhibition measured after 18 hrs by CLSI protocol based two-fold serial microdilution method; type: functional, organism-based
[5] = tested on: Escherichia coli; assay: Antibacterial activity against Escherichia coli NCTC 8196 assessed as bacterial growth inhibition measured after 18 hrs by CLSI protocol based two-fold serial microdilution method; type: functional, organism-based
[6] = tested on: Pseudomonas aeruginosa; assay: Antibacterial activity against Pseudomonas aeruginosa ATCC 27853 assessed as bacterial growth inhibition measured after 18 hrs by CLSI protocol based two-fold serial microdilution method; type: functional, organism-based
[7] = tested on: Staphylococcus epidermidis; assay: Inhibition of biofilm formation in Staphylococcus epidermidis ATCC 12228 at 1 to 8 ug/ml measured after 24 hrs by crystal violet staining based assay; type: functional, organism-based
[8] = tested on: Staphylococcus epidermidis; assay: Antibacterial activity against methicillin-resistant Staphylococcus epidermidis isolate 609 assessed as bacterial growth inhibition measured after 18 hrs by CLSI protocol based two-fold serial microdilution method; type: functional; settings: isolate 609, 18 h
[9] = tested on: Staphylococcus epidermidis; assay: Antibacterial activity against methicillin-resistant Staphylococcus epidermidis isolate 660 assessed as bacterial growth inhibition measured after 18 hrs by CLSI protocol based two-fold serial microdilution method; type: functional; settings: isolate 660, 18 h
[10] = tested on: Staphylococcus aureus; assay: Antibacterial activity against methicillin-resistant Staphylococcus aureus isolate 621 assessed as bacterial growth inhibition measured after 18 hrs by CLSI protocol based two-fold serial microdilution method; type: functional; settings: isolate 621, 18 h
[11] = tested on: Staphylococcus epidermidis; assay: Antibacterial activity against methicillin-resistant Staphylococcus epidermidis isolate 602 assessed as bacterial growth inhibition measured after 18 hrs by CLSI protocol based two-fold serial microdilution method; type: functional; settings: isolate 602, 18 h
[12] = tested on: Staphylococcus epidermidis; assay: Antibacterial activity against methicillin-resistant Staphylococcus epidermidis isolate 654 assessed as bacterial growth inhibition measured after 18 hrs by CLSI protocol based two-fold serial microdilution method; type: functional; settings: isolate 654, 18 h
[13] = tested on: Staphylococcus aureus; assay: Antibacterial activity against methicillin-resistant Staphylococcus aureus isolate 584 assessed as bacterial growth inhibition measured after 18 hrs by CLSI protocol based two-fold serial microdilution method; type: functional; settings: isolate 584, 18 h
[14] = tested on: Staphylococcus epidermidis; assay: Antibacterial activity against methicillin-resistant Staphylococcus epidermidis isolate 574 assessed as bacterial growth inhibition measured after 18 hrs by CLSI protocol based two-fold serial microdilution method; type: functional; settings: isolate 574, 18 h
[15] = tested on: Staphylococcus epidermidis; assay: Inhibition of biofilm formation in Staphylococcus epidermidis ATCC 35984 at 1 to 8 ug/ml measured after 24 hrs by crystal violet staining based assay; type: functional, organism-based
[16] = tested on: Staphylococcus epidermidis; assay: Antibacterial activity against methicillin-resistant Staphylococcus epidermidis isolate 610 assessed as bacterial growth inhibition measured after 18 hrs by CLSI protocol based two-fold serial microdilution method; type: functional; settings: isolate 610, 18 h
[17] = tested on: Staphylococcus aureus; assay: Antibacterial activity against methicillin-resistant Staphylococcus aureus isolate 770 assessed as bacterial growth inhibition measured after 18 hrs by CLSI protocol based two-fold serial microdilution method; type: functional; settings: isolate 770, 18 h
[18] = tested on: Staphylococcus aureus; assay: Antibacterial activity against methicillin-resistant Staphylococcus aureus isolate 750 assessed as bacterial growth inhibition measured after 18 hrs by CLSI protocol based two-fold serial microdilution method; type: functional; settings: isolate 750, 18 h
[19] = tested on: Staphylococcus aureus; assay: Antibacterial activity against methicillin-resistant Staphylococcus aureus isolate 583 assessed as bacterial growth inhibition measured after 18 hrs by CLSI protocol based two-fold serial microdilution method; type: functional; settings: isolate 583, 18 h
[20] = tested on: Staphylococcus aureus; assay: Antibacterial activity against methicillin-resistant Staphylococcus aureus isolate 620 assessed as bacterial growth inhibition measured after 18 hrs by CLSI protocol based two-fold serial microdilution method; type: functional; settings: isolate 620, 18 h
[21] = tested on: Staphylococcus aureus; assay: Antibacterial activity against methicillin-resistant Staphylococcus aureus isolate 612 assessed as bacterial growth inhibition measured after 18 hrs by CLSI protocol based two-fold serial microdilution method; type: functional; settings: isolate 612, 18 h
[22] = tested on: Staphylococcus epidermidis; assay: Antibacterial activity against methicillin-resistant Staphylococcus epidermidis isolate 603 assessed as bacterial growth inhibition measured after 18 hrs by CLSI protocol based two-fold serial microdilution method; type: functional; settings: isolate 603, 18 h

O=[N+]([O-])c1cc[n+]([O-])c2ccccc12 [4-NITROQUINOLINE-1-OXIDE]
22 mm: diameter of the inhibition zone (DIZ) [2]
34 mm: diameter of the inhibition zone (DIZ) [1]

CC[C@@H](C(=O)[C@@H](C)[C@@H](O)[C@H](C)[C@@H]1O[C@@H]([C@@H](CC)C(=O)OCC(F)(F)F)CC[C@@H]1C)[C@H]1O[C@]2(C=C[C@@H](O)[C@]3(CC[C@@](C)([C@H]4CC[C@](O)(CC)[C@H](C)O4)O3)O2)[C@H](C)C[C@@H]1C
inactive: Activity [3] | Activity [4] | Activity [5] | Activity [6]

C#CCOC(=O)[C@H](CC)[C@H]1CC[C@H](C)[C@H]([C@@H](C)[C@H](O)[C@H](C)C(=O)[C@H](CC)[C@H]2O[C@]3(C=C[C@@H](O)[C@]4(CC[C@@](C)([C@H]5CC[C@](O)(CC)[C@H](C)O5)O4)O3)[C@H](C)C[C@@H]2C)O1
inactive: Activity [3] | Activity [4] | Activity [5] | Activity [6]

CC[C@@H](C(=O)[C@@H](C)[C@@H](O)[C@H](C)[C@@H]1O[C@@H]([C@@H](CC)C(=O)NCCc2ccc(F)cc2)CC[C@@H]1C)[C@H]1O[C@]2(C=C[C@@H](O)[C@]3(CC[C@@](C)([C@H]4CC[C@](O)(CC)[C@H](C)O4)O3)O2)[C@H](C)C[C@@H]1C
inactive: Activity [3] | Activity [4] | Activity [5] | Activity [6]
20 mm: diameter of the inhibition zone (DIZ) [2]
18.4 µM: MIC [8] | MIC [10] | MIC [13] | MIC [14] | MIC [18] | MIC [19] | MIC [20] | MIC [22]
36.7 µM: MIC [9] | MIC [11] | MIC [12] | MIC [16] | MIC [17] | MIC [21]
active: inhibition [7] | inhibition [15]
27 mm: diameter of the inhibition zone (DIZ) [1]

C#CCOC(=O)[C@H](CC)[C@H]1CC[C@H](C)[C@H]([C@@H](C)[C@H](O)[C@H](C)C(=O)[C@H](CC)[C@H]2O[C@]3(C=CC(=O)[C@]4(CC[C@@](C)([C@H]5CC[C@](O)(CC)[C@H](C)O5)O4)O3)[C@H](C)C[C@@H]2C)O1
inactive: Activity [3] | Activity [4] | Activity [5] | Activity [6]

CC[C@@H](C(=O)[C@@H](C)[C@@H](O)[C@H](C)[C@@H]1O[C@@H]([C@@H](CC)C(=O)O)CC[C@@H]1C)[C@H]1O[C@]2(C=C[C@@H](O)[C@]3(CC[C@@](C)([C@H]4CC[C@](O)(CC)[C@H](C)O4)O3)O2)[C@H](C)C[C@@H]1C [SALINOMYCIN]
5.33 µM: MIC [9] | MIC [12]
32 mm: diameter of the inhibition zone (DIZ) [2]
2.66 µM: MIC [10] | MIC [13] | MIC [17] | MIC [19] | MIC [22]
34 mm: diameter of the inhibition zone (DIZ) [1]
1.33 µM: MIC [8] | MIC [11] | MIC [14] | MIC [16] | MIC [18] | MIC [20] | MIC [21]
inactive: Activity [3] | Activity [4] | Activity [5] | Activity [6]

CC[C@@H](C(=O)[C@@H](C)[C@@H](O)[C@H](C)[C@@H]1O[C@@H]([C@@H](CC)C(=O)OCC(F)(F)F)CC[C@@H]1C)[C@H]1O[C@]2(C=CC(=O)[C@]3(CC[C@@](C)([C@H]4CC[C@](O)(CC)[C@H](C)O4)O3)O2)[C@H](C)C[C@@H]1C
inactive: Activity [3] | Activity [4] | Activity [5] | Activity [6]

CC[C@@H](C(=O)[C@@H](C)[C@@H](O)[C@H](C)[C@@H]1O[C@@H]([C@@H](CC)C(=O)NCC(F)(F)F)CC[C@@H]1C)[C@H]1O[C@]2(C=CC(=O)[C@]3(CC[C@@](C)([C@H]4CC[C@](O)(CC)[C@H](C)O4)O3)O2)[C@H](C)C[C@@H]1C
inactive: Activity [3] | Activity [4] | Activity [5] | Activity [6]

C#CCN[C@@H]1C=C[C@]2(O[C@H]([C@@H](CC)C(=O)[C@@H](C)[C@@H](O)[C@H](C)[C@@H]3O[C@@H]([C@@H](CC)C(=O)O)CC[C@@H]3C)[C@@H](C)C[C@H]2C)O[C@@]12CC[C@@](C)([C@H]1CC[C@](O)(CC)[C@H](C)O1)O2
30 mm: diameter of the inhibition zone (DIZ) [2]
81.2 µM: MIC [12] | MIC [13] | MIC [19]
34 mm: diameter of the inhibition zone (DIZ) [1]
2.54 µM: MIC [16] | MIC [17] | MIC [20]
inactive: Activity [3] | Activity [4] | Activity [5] | Activity [6]
40.6 µM: MIC [9]
active: inhibition [7] | inhibition [15]
1.27 µM: MIC [8] | MIC [10] | MIC [11] | MIC [14] | MIC [18] | MIC [21] | MIC [22]

CC[C@@H](C(=O)[C@@H](C)[C@@H](O)[C@H](C)[C@@H]1O[C@@H]([C@@H](CC)C(=O)O)CC[C@@H]1C)[C@H]1O[C@]2(C=CC(=O)[C@]3(CC[C@@](C)([C@H]4CC[C@](O)(CC)[C@H](C)O4)O3)O2)[C@H](C)C[C@@H]1C
active: inhibition [7] | inhibition [15]
32 mm: diameter of the inhibition zone (DIZ) [2]
inactive: Activity [3] | Activity [4] | Activity [5] | Activity [6]
1.34 µM: MIC [14]
5.34 µM: MIC [9] | MIC [12]
2.67 µM: MIC [8] | MIC [10] | MIC [11] | MIC [13] | MIC [16] | MIC [17] | MIC [18] | MIC [19] | MIC [20] | MIC [21] | MIC [22]
34 mm: diameter of the inhibition zone (DIZ) [1]

C#CCNC(=O)[C@H](CC)[C@H]1CC[C@H](C)[C@H]([C@@H](C)[C@H](O)[C@H](C)C(=O)[C@H](CC)[C@H]2O[C@]3(C=CC(=O)[C@]4(CC[C@@](C)([C@H]5CC[C@](O)(CC)[C@H](C)O5)O4)O3)[C@H](C)C[C@@H]2C)O1
inactive: Activity [3] | Activity [4] | Activity [5] | Activity [6]

CC[C@@H](C(=O)[C@@H](C)[C@@H](O)[C@H](C)[C@@H]1O[C@@H]([C@@H](CC)C(=O)NCC(F)(F)F)CC[C@@H]1C)[C@H]1O[C@]2(C=C[C@@H](O)[C@]3(CC[C@@](C)([C@H]4CC[C@](O)(CC)[C@H](C)O4)O3)O2)[C@H](C)C[C@@H]1C
inactive: Activity [3] | Activity [4] | Activity [5] | Activity [6]

CC[C@@H](C(=O)[C@@H](C)[C@@H](O)[C@H](C)[C@@H]1O[C@@H]([C@@H](CC)C(=O)NCCc2ccc(F)cc2)CC[C@@H]1C)[C@H]1O[C@]2(C=CC(=O)[C@]3(CC[C@@](C)([C@H]4CC[C@](O)(CC)[C@H](C)O4)O3)O2)[C@H](C)C[C@@H]1C
inactive: Activity [3] | Activity [4] | Activity [5] | Activity [6]

O=C(O)c1cn(C2CC2)c2cc(N3CCNCC3)c(F)cc2c1=O
active: inhibition [7] | inhibition [15]

C#CCNC(=O)[C@H](CC)[C@H]1CC[C@H](C)[C@H]([C@@H](C)[C@H](O)[C@H](C)C(=O)[C@H](CC)[C@H]2O[C@]3(C=C[C@@H](O)[C@]4(CC[C@@](C)([C@H]5CC[C@](O)(CC)[C@H](C)O5)O4)O3)[C@H](C)C[C@@H]2C)O1
inactive: Activity [3] | Activity [4] | Activity [5] | Activity [6]
